Experimental data published in patent publication US20220324865A1 (Bayer Aktiengesellschaft, priority 2018, published 2022).
Structures can show the parent of a compound that is named as a salt.

Biological target: T1, human EP3 receptor (Homo sapiens, UniProt P43115)
T1 construct: expressed in transfected cells; host or cells: CHO K1 (Chinese Hamster Ovary), stably co-transfected with Galpha16 and mitochondrial clytin
T1 sequence (P43115 1-390): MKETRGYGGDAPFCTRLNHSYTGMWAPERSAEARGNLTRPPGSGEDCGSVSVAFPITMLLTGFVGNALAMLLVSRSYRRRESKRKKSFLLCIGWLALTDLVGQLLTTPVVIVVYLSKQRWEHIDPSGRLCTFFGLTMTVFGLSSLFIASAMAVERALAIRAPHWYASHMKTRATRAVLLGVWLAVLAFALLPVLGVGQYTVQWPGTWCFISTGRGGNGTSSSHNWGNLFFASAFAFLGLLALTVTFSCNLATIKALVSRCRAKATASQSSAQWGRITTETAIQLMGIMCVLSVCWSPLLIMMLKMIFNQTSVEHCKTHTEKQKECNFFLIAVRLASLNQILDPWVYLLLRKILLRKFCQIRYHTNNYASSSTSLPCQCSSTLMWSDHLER
Assay: Cellular in vitro assay for determining EP3 receptor activity (human EP3 cell line, sulprostone-stimulated calcium luminescence)
Type: cell-based
Settings: CHO cells expressing human EP3 and mitochondrial Clytin; antagonist mode, sulprostone at EC50; read-out: EP3 CHO mtCLY ANTAG IC50
Outline: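 CHO K1 cells stably expressing human EP3 with Gα16 and mitochondrial Clytin, loaded overnight with coelenterazine. Compounds added 10 min before sulprostone at its EC50; antagonism read immediately as reduced calcium-driven luminescence, quadruplicate points.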

Row | Structure (SMILES) | IC50 [nM]
1 | CN(C)CC(NC(=O)c1cc2c(=O)[nH]c(-c3ccc4ccccc4c3)cn2n1)c1ccccc1 (racemic) [Example 1-4, rac-N-[2-(Dimethylamino)-1-phenylethyl]-6-(naphthalen-2-yl)-4-oxo-4,5-dihydropyrazolo[1,5-a]-pyrazine-2-carboxamide] | 4.36
2 | Cc1ccc(-c2cn3nc(C(=O)NC(C)CN4CCOCC4)c(C4CC4)c3c(=O)[nH]2)cc1C (single isomer, unassigned) [6-452] | 6.2
3 | Cc1cc(-c2cn3nc(C(=O)NC4(c5ccccc5)CCOCC4)c(C(F)(F)F)c3c(=O)[nH]2)ccc1Cl [6-230] | 1.6
4 | COc1ccc(-c2cn3nc(C(=O)N[C@@H](c4ccc(F)cc4)C(F)(F)CO)c(C4CC4)c3c(=O)[nH]2)cc1F [6-586] | 1.35
5 | C[C@H](NC(=O)c1cc2c(=O)[nH]c(-c3ccc4c(c3)N(C)CCO4)cn2n1)c1ccc(F)cc1 [6-83] | 3.55
6 | CCN(CCO)CC(NC(=O)c1cc2c(=O)[nH]c(-c3ccc(C)c(C)c3)cn2n1)c1ccccc1 (centres unmarked) [Example 1-85, 6-(3,4-Dimethylphenyl)-N-[2-[ethyl(2-hydroxyethyl)amino]-1-phenylethyl]-4-oxo-5H-pyrazolo-[1,5-a]pyrazine-2-carboxamide] | 3
7 | O=C(NC1CCN(CC(F)F)C1)c1nn2cc(-c3ccc4ccccc4c3)[nH]c(=O)c2c1C(F)(F)F (single isomer, unassigned) [6-520] | 3.15
8 | Cc1cccc2ncc(-c3cn4nc(C(=O)NC(C)c5ccc6c(c5)OCCO6)c(C(C)C)c4c(=O)[nH]3)cc12 (centres unmarked) [Example 4-57, N-[1-(2,3-Dihydro-1,4-benzodioxin-6-yl)ethyl]-3-isopropyl-6-(5-methyl-3-quinolyl)-4-oxo-5H-pyrazolo[1,5-a]pyrazine-2-carboxamide] | 1.9
9 | Cc1cccc2ncc(-c3cn4nc(C(=O)NC5(c6ccc(Cl)cc6)CCC5)c(C(C)C)c4c(=O)[nH]3)cc12 [Example 4-50, N-[1-(4-Chlorophenyl)cyclobutyl]-6-(5-methylquinolin-3-yl)-4-oxo-3-(propan-2-yl)-4,5-dihydropyrazolo[1,5-a]pyrazine-2-carboxamide] | 8.3
10 | COc1ccc([C@@H](C)NC(=O)c2nn3cc(-c4ccc(Cl)c(F)c4)[nH]c(=O)c3c2C2CC2)cn1 [6-87] | 0.93
11 | Cc1c(C(=O)NC(C)c2ccc(S(C)(=O)=O)cc2)nn2c(C)c(-c3ccc4ccccc4c3)[nH]c(=O)c12 (centres unmarked) [Example 3-23, 3,7-Dimethyl-N-[1-(4-methylsulfonylphenyl)ethyl]-6-(2-naphthyl)-4-oxo-5H-pyrazolo[1,5-a]pyrazine-2-carboxamide] | 3.2
12 | Cc1cnn(C(CNC(=O)c2cc3c(=O)[nH]c(-c4ccc5ccccc5c4)cn3n2)C(C)C)c1 (centres unmarked) [Example 2-12, N-[3-Methyl-2-(4-methyl-1H-pyrazol-1-yl)butyl]-6-(2-naphthyl)-4-oxo-4,5-dihydropyrazolo[1,5-a]pyrazine-2-carboxamide] | 4.65
13 | CC(NC(=O)c1cc2c(=O)[nH]c(-c3ccc4ccccc4c3)cn2n1)c1ccc2c(c1)OCCO2 (centres unmarked) [Example 2-35, N-[1-(2,3-Dihydro-1,4-benzodioxin-6-yl)ethyl]-6-(2-naphthyl)-4-oxo-4,5-dihydropyrazolo[1,5-a]pyrazine-2-carboxamide] | 5.3
14 | COc1cccc(C(CCO)NC(=O)c2nn3c(C)c(-c4ccc5ccccc5c4)[nH]c(=O)c3c2C)c1 (centres unmarked) [Example 3-39, N-[3-Hydroxy-1-(3-methoxyphenyl)propyl]-3,7-dimethyl-6-(2-naphthyl)-4-oxo-5H-pyrazolo[1,5-a]pyrazine-2-carboxamide] | 1.8
15 | O=C(NC1(c2ccc(F)cc2)CNC1)c1nn2cc(-c3ccc4ccccc4c3)[nH]c(=O)c2c1C(F)(F)F [Example 1-125, N-[3-(4-Fluorophenyflazetidin-3-yl]-6-(naphthalen-2-yl)-4-oxo-3-(trifluoromethyl)-4,5-dihydropyrazolo[1,5-a]pyrazine-2-carboxamide hydrochloride] | 3.35
16 | Cc1cc(-c2cn3nc(C(=O)NC(C)C4CCC4)c(C(F)(F)F)c3c(=O)[nH]2)ccc1Cl (racemic) [6-222] | 1.11
17 | Cc1cc(-c2cn3nc(C(=O)N[C@@H](C)C4CC4)c(C(C)C)c3c(=O)[nH]2)ccc1Cl [6-608] | 1.9
18 | Cc1ccc(-c2cn3nc(C(=O)N[C@@H](C)C4CC4)c(C(F)(F)F)c3c(=O)[nH]2)cc1Cl [6-164] | 1.04
19 | COc1ccc2c(c1)CCCC2NC(=O)c1nn2cc(-c3cnc4cccc(C)c4c3)[nH]c(=O)c2c1C(C)C (centres unmarked) [Example 4-64, 3-Isopropyl-N-(6-methoxy-1,2,3,4-tetrahydronaphthalen-1-yl)-6-(5-methylquinolin-3-yl)-4-oxo-4,5-dihydropyrazolo[1,5-a]pyrazine-2-carboxamide] | 2.55

Row | Structure (SMILES) | IC50 [nM]
20 | Cc1ccc(-c2cn3nc(C(=O)N[C@H]4CCOC4)c(C(F)(F)F)c3c(=O)[nH]2)cc1Cl [6-186] | 5.35
21 | CC(C)(O)[C@@H](NC(=O)c1nn2cc(-c3ccc(Cl)c(F)c3)[nH]c(=O)c2c1C1CC(F)(F)C1)c1ccc(F)cc1 [6-555] | 3.35
22 | Cc1cnn(CC(C)NC(=O)c2cc3c(=O)[nH]c(-c4ccc5ccccc5c4)cn3n2)c1 (centres unmarked) [Example 2-29, N-[1-(4-Methyl-1H-pyrazol-1-yl)propan-2-yl]-6-(2-naphthyl)-4-oxo-4,5-dihydropyrazolo[1,5-a]pyrazine-2-carboxamide] | 7.25
23 | Cc1ccc(-c2cn3nc(C(=O)NC(C)C4CCC4)c(C(F)(F)F)c3c(=O)[nH]2)cc1Cl (single isomer, unassigned) [6-195] | 1.55
24 | CC(C)(O)[C@@H](NC(=O)c1cc2c(=O)[nH]c(-c3ccc4c(c3)CCC4)cn2n1)c1ccc(F)cc1 [Example 1-134, 6-(2,3-Dihydro-1H-inden-5-yl)-N-[(1S)-1-(4-fluorophenyl)-2-hydroxy-2-methylpropyl]-4-oxo-4,5-dihydropyrazolo[1,5-a]pyrazine-2-carboxamide] | 5.75
25 | COc1ccc(C(CCO)NC(=O)c2cc3c(=O)[nH]c(-c4ccc5c(c4)OCCO5)cn3n2)cc1 (centres unmarked) [Example 5-3, 6-(2,3-Dihydro-1,4-benzodioxin-6-yl)-N-[3-hydroxy-1-(4-methoxyphenyl)propyl]-4-oxo-5H-pyrazolo[1,5-a]pyrazine-2-carboxamide] | 2.45
26 | CN1CC(NC(=O)c2nn3cc(-c4ccc5ccccc5c4)[nH]c(=O)c3c2C(F)(F)F)(c2ccc(F)cc2)C1 [Example 1-31, N-[3-(4-Fluorophenyl)-1-methylazetidin-3-yl]-6-(naphthalen-2-yl)-4-oxo-3-(trifluoromethyl)-5H-pyrazolo[1,5-a]pyrazine-2-carboxamide trifluoroacetic acid salt] | 1.84
27 | Cc1cc(-c2cn3nc(C(=O)NC4CCN(C5CC5)C4)c(C(F)(F)F)c3c(=O)[nH]2)ccc1Cl (single isomer, unassigned) [6-241] | 9.5
28 | O=C(NC1(c2ccc(F)cc2)CN(C2CC2)C1)c1nn2cc(-c3ccc(Cl)c(F)c3)[nH]c(=O)c2c1C1CC1 [6-104] | 1.25
29 | Cc1ccc(-c2cn3nc(C(=O)NC[C@@]4(C5CC5)NC(=O)NC4=O)c(C4CC4)c3c(=O)[nH]2)cc1C [6-456] | 5.95
30 | COc1cc(-c2cn3nc(C(=O)N[C@H](C)C4CC4)c(C4CC4)c3c(=O)[nH]2)ccc1Cl [6-483] | 1.01
31 | Cc1ccc(-c2cn3nc(C(=O)NC4(c5ccc(F)cc5)CCN(C)C4)cc3c(=O)[nH]2)cc1C (single isomer, unassigned) [6-364] | 6.45
32 | Cc1cc(-c2cn3nc(C(=O)N[C@@H](C)C(C)C)c(C(F)(F)F)c3c(=O)[nH]2)ccc1Cl [6-215] | 2.7
33 | Cc1cccc2ncc(-c3cn4nc(C(=O)NCCCS(C)(=O)=O)c(C(C)C)c4c(=O)[nH]3)cc12 [Example 4-35, N-[3-(Methansulfonyl)propyl]-6-(5-methylquinolin-3-yl)-4-oxo-3-(propan-2-yl)-4,5-dihydropyrazolo[1,5-a]pyrazine-2-carboxamide] | 1.9
34 | CC(NC(=O)c1cc2c(=O)[nH]c(-c3ccc4ccccc4c3)cn2n1)c1ccc(O)cc1 (single isomer, unassigned) [6-543] | 3.3
35 | COc1ccc(C(CCO)NC(=O)c2nn3c(C)c(-c4ccc5ccccc5c4)[nH]c(=O)c3c2C)cc1 (centres unmarked) [Example 3-37, N-[3-Hydroxy-1-(4-methoxyphenyl)propyl]-3,7-dimethyl-6-(2-naphthyl)-4-oxo-5H-pyrazolo[1,5-a]pyrazine-2-carboxamide] | 2.4
36 | Cc1ccc2c(c1)C(NC(=O)c1nn3cc(-c4cnc5cccc(C)c5c4)[nH]c(=O)c3c1C(C)C)CC(C)(C)O2 (centres unmarked) [Example 4-84, 3-Isopropyl-6-(5-methylquinolin-3-yl)-4-oxo-N-(2,2,6-trimethyl-3,4-dihydro-2H-chromen-4-yl)-4,5-dihydropyrazolo[1,5-a]pyrazine-2-carboxamide] | 6.95
37 | COc1ccc(C(C)NC(=O)c2cc3c(=O)[nH]c(-c4ccc(Cl)c(C)c4)cn3n2)cn1 (centres unmarked) [Example 1-107, 6-(4-Chloro-3-methylphenyl)-N-[1-(6-methoxypyridin-3-yl)ethyl]-4-oxo-4,5-dihydropyrazolo[1,5-a]-pyrazine-2-carboxamide] | 3.97
38 | CC(C)C(CNC(=O)c1cc2c(=O)[nH]c(-c3ccc4ccccc4c3)cn2n1)n1cccn1 (centres unmarked) [Example 2-17, N-[3-Methyl-2-(1H-pyrazol-1-yl)butyl]-6-(2-naphthyl)-4-oxo-4,5-dihydropyrazolo[1,5-a]pyrazine-2-carboxamide] | 6.5
